Reference: patent publication US20230382863A1, “MEK INHIBITORS AND USES THEREOF” (Ikena Oncology, Inc., priority 2022, published 2023)

Assays:
pERK HCT-116 (G13D) = pERK HCT-116 (G13D) ICW (4 hour); assay type: cell-based; conditions: Homo sapiens, read-out: pERK HCT-116 (G13D) ICW (4 hour): Average IC50 (nM)
[1] = tested on: Phosphorylation of MEK1/2 in AsPC1 cells; assay: 4 hour pMEK1/2 MSD Assay; assay type: cell-based; conditions: Homo sapiens; AsPC1, 4 hours; read-out: pMEK IC50
Method: AsPC1 cells were seeded at 10,000 cells/well overnight in 96-well plates, then treated with a 12-point dose response of compounds (Starting dose of 1000 nM and 3-fold dilution) for 4 hours. AsPC1 cells are a K-Ras mutant (G12D) pancreatic cancer cell line. Phosphorylation of MEK1/2 on residues Ser217 and Ser221 were detected using a MesoScale Discovery (MSD) assay (MSD Cat #K15129D-2). MEK1/2 phosphorylation levels were normalized to total MEK1/2 protein detected in each well on the same MSD plate. IC50 values were determined by fitting a variable slope, four parameters curve to the compound concentration to normalized Phospho-MEK1/2 relationship.

Pharmacokinetics in rat = assay type: in vivo; conditions: plasma, IV, 1 mg/kg
[2] = tested on: AsPC1 xenograft (KRAS G12D); assay: In vivo efficacy, AsPC-1 xenograft model; design: species or system mouse; conditions: AsPC-1 model, 3 mg/kg QD, Day 21
Method: (§1) The antitumor activity of exemplary MEK inhibitor compounds is evaluated in vivo using human cell line derived xenografts (CDX) grown in immunodeficient mice. For these studies, AsPC1 (pancreatic cell line with KRAS G12D mutation), NCI-H2122 (lung cell line with KRAS G12C mutation), and 5637 (bladder cell line with CRAF amplification) models are used. In addition, HCT-116 (colorectal cell line with KRAS G13D mutation), SKM-1 (AML cell line with KRAS K117N mutation), and OCI-AML-3 (AML cell line with NRAS Q61L mutation) models are used. The tumor cell lines (AsPC-1, NCI-H2122, 5637, and HCT-116 cells) are maintained in vitro as monolayer culture in medium at 37° C. in an atmosphere of 5% CO2 in air. The tumor cell lines (SKM-1 and OCI-AML-3 cells) are maintained in vitro as a suspension in medium at 37° C. in an atmosphere of 5% CO2 in air. The tumor cells are routinely sub-cultured before confluence by trypsin-EDTA treatment, not to exceed 4-5 passages. The cells growing in an exponential growth phase are harvested for tumor inoculation. AsPC1, NCI-H2122, and OCI-AML-3 tumors are implanted into Balb/c nude mice. HCT-116 tumors are implanted into Nu/Nu mice. 5637 and SKM-1 tumors are implanted into NOG mice. […] Throughout the study, mouse body weight and tumor volume are recorded. The measurement of tumor size is conducted twice weekly with a caliper and recorded. […]

[3] = tested on: NCI-H2122 xenograft (KRAS G12C); assay: In vivo efficacy, NCI-H2122 xenograft model; design: species or system mouse; conditions: 3 mg/kg QD, Day 31
Method: as §1

[4] = tested on: 5637 xenograft (CRAF amplification); assay: In vivo efficacy, 5637 xenograft model; design: species or system mouse; conditions: 5637 model, 3 mg/kg QD, Day 21
Method: as §1

[5] = tested on: HCT-116 xenograft (KRAS G13D); assay: In vivo efficacy, HCT-116 xenograft model; design: species or system mouse; conditions: HCT-116 model, Day 20
Method: The antitumor activity of exemplary MEK inhibitor compounds is evaluated in vivo using human cell line derived xenografts (CDX) grown in immunodeficient mice. For these studies, AsPC1 (pancreatic cell line with KRAS G12D mutation), NCI-H2122 (lung cell line with KRAS G12C mutation), and 5637 (bladder cell line with CRAF amplification) models are used. In addition, HCT-116 (colorectal cell line with KRAS G13D mutation), SKM-1 (AML cell line with KRAS K117N mutation), and OCI-AML-3 (AML cell line with NRAS Q61L mutation) models are used. The tumor cell lines (AsPC-1, NCI-H2122, 5637, and HCT-116 cells) are maintained in vitro as monolayer culture in medium at 37° C. in an atmosphere of 5% CO2 in air. The tumor cell lines (SKM-1 and OCI-AML-3 cells) are maintained in vitro as a suspension in medium at 37° C. in an atmosphere of 5% CO2 in air. The tumor cells are routinely sub-cultured before confluence by trypsin-EDTA treatment, not to exceed 4-5 passages. The cells growing in an exponential growth phase are harvested for tumor inoculation. AsPC1, NCI-H2122, and OCI-AML-3 tumors are implanted into Balb/c nude mice. HCT-116 tumors are implanted into Nu/Nu mice. 5637 and SKM-1 tumors are implanted into NOG mice. Each mouse is inoculated subcutaneously on the right flank with tumor cells in a 1:1 mixture with matrigel. Tumors are allowed to grow to approximately 150-200 mm^3. At this time, mice are assigned to groups such that the mean tumor volume is the same for each treatment group. The MEK inhibitor compound treatments are administrated to the tumor-bearing mice via oral gavage. Throughout the study, mouse body weight and tumor volume are recorded. The measurement of tumor size is conducted twice weekly with a caliper and recorded. The tumor volume (mm^3) is estimated using the formula: TV=a×b^2/2, where “a” and “b” are long and short diameters of a tumor, respectively.

ARAF in complex with MEK = assay: ARAF-MEK stabilization in cells (MEK immunoprecipitation, Western); assay type: cell-based; conditions: HCT-116 and NCI-H1755 cells, 3 nM, 4 hours; stabilization = >1.5-fold over vehicle
From the text: (§2) The stabilization of ARAF, BRAF and CRAF in complex with MEK in MEK immunoprecipitates isolated from cellular lysates. For these studies, HCT-116 (colorectal cell line with KRAS G13D mutation), SKMEL-2 (melanoma cell line with NRAS Q61K mutation), HT-29 (colorectal cell line with BRAF Class I mutation), NCI-H1755 (lung cancer cell line with BRAF Class II mutation), and NCI-H1666 (lung cancer cell line with BRAF Class III mutation) models are used. The tumor cell lines are maintained in vitro as monolayer culture in medium at 37° C. in an atmosphere of 5% CO2 in air. Cell lines are treated with exemplary MEK inhibitors at a concentration of 3 nM for 4 hours. Cells are lysed and MEK is immunoprecipitated from the lysates overnight. Denatured immunoprecipitates are run on SDS-PAGE, transferred to nitrocellulose membranes and associated ARAF, BRAF, or CRAF are detected by Western analysis. Stabilization was defined as >1.5-fold induction of RAF-MEK interaction over vehicle control.

BRAF in complex with MEK = assay: BRAF-MEK stabilization in cells (MEK immunoprecipitation, Western); assay type: cell-based; conditions: 3 nM, 4 hours
From the text: as §2

[6] = tested on: 240 cell lines with known alterations in the MAPK pathway; assay: MEK inhibitor sensitivity in 240 cell lines (Cell Titer Glo, 5 days); assay type: cell-based; conditions: cell lines with KRAS, NRAS, BRAF Class I and III mutations, CRAF-alterations
Method: 240 cell lines representative of multiple cancer indications with known alterations in the MAPK pathway, including KRAS, NRAS, HRAS, NF1, EGFR, BRAF and CRAF mutations, were seeded overnight in […], then treated with a 9-point dose response of exemplary MEK inhibitors (starting dose of 100 nM and 3-fold dilution) for 5 days. Cell viability was determined using a Cell Titer Glo (CTG) assay. Percent inhibition was calculated for all compounds utilizing staurosporine (1000 nM) treatment as a measure of maximal inhibition. IC50 and area under the curve (AUC) values were determined by fitting a variable slope, four parameters curve to the compound concentration to percent inhibition relationship.

- IC50 (pERK HCT-116 (G13D)): < 100 nM
- IC50 [1]: < 0.1 µM
- AUC(0-inf) (Pharmacokinetics in rat): 1.08 µg·h/mL
- AUC(0-t) (Pharmacokinetics in rat): 1.07 µg·h/mL
- clearance (Pharmacokinetics in rat): 0.996 L/h/kg
- half-life (Pharmacokinetics in rat): 4.22 h
- Vd (Pharmacokinetics in rat; read-out: Vdss): 2.2 L/kg
Compound: CNS(=O)(=O)Nc1cccc(Oc2c(C(=O)NC3CC3)c(Nc3ccc(I)cc3F)n(C)c(=O)c2C)c1Cl [Compound I-2, 4-(2-chloro-3-((N-methylsulfamoyl)amino)phenoxy)-N-cyclopropyl-2-((2-fluoro-4-iodophenyl)amino)-1,5-dimethyl-6-oxo-1,6-dihydropyridine-3-carboxamide]
- average body weight gain [2]: 2.4%
- percent TGI (tumor growth inhibition) [2]: 83.4%
- average body weight loss [3]: 1.5%
- percent TGI [3]: 104%
- average body weight loss [4]: 6.8%
- percent TGI [4]: 111%
- average body weight gain ([5]; 2 mg/kg QD): 4%
- percent TGI ([5]; 2 mg/kg QD): 102.9%
- average body weight gain ([5]; 3 mg/kg QOD): 5.5%
- percent TGI ([5]; 3 mg/kg QOD): 98.1%
- average body weight gain ([5]; 6 mg/kg QOD): 12.1%
- percent TGI ([5]; 6 mg/kg QOD): 98%
- association of ARAF with MEK (ARAF in complex with MEK): enhanced
- Wild-type BRAF-MEK association (BRAF in complex with MEK; HCT-116 and SKMEL-2 cells): augmented
- mutant BRAF-MEK interaction (BRAF in complex with MEK; HT-29 (BRAF Class I), NCI-H1755 (BRAF Class II), NCI-H1666 (BRAF Class III)): enhanced
- sensitivity compared to RAS/RAF wild-type cell lines [6]: increased sensitivity
